Results on two compounds are retold here after paper PMC6804243, “Small-Molecule Inhibition of UBE2T/FANCL-Mediated Ubiquitylation in the Fanconi Anemia Pathway” (ACS Chemical Biology, 2019).

The test system of this assay is U2OS cells. Briefly: Cell cycle analysis based on EdU incorporation. The settings on record: for S-phase indices: CU1 200 μM or CU2 500 μM. How it is done: Figure 3 Cell-based assays with CU1 and CU2: (a) Western blot showing that the formation of mUb-FANCD2(*), in response to HU treatment (2.5 mM, 8 h), is impaired in U2OS cells in the presence of CU1 (200 μM) or CU2 (500 μM). Ratio = mUb-FANCD2/FANCD2 (normalized to DMSO control). mUb-FANCD2 was resolved on a separate gel. PARP1 was used as a loading control for each gel, as well as to assess apoptosis. (b) Quantification of the reduction in mUb-FANCD2, in response to HU treatment (2.5 mM, 8 h) in the presence of CU1 (200 μM) or CU2 (500 μM). Mean calculated from three independent experiments. (c) Western blot showing that formation of mUb-FANCD2 (denoted by an asterisk symbol, *) in response to cisplatin treatment (10 μM) for 6, 12, and 24 h is impaired in U2OS cells in the presence of CU2 (500 μM). Ratio = mUb-FANCD2/FANCD2 (normalized to DMSO control). (d) Cell cycle analyses based upon EdU incorporation in cells treated with HU (2.5 mM, 8 h) in the presence or absence of CU1 (200 μM) or CU2 (500 μM). HU treatment was used for gating purposes. […] TEXT PRINTED IN THE PICTURE: (d) DMSO: S-phase 42.7; G1 29.2; G2-M 27.8 | (d) HU: S-phase 0.24; G1 72.4; G2-M 22.9 | (d) CU1: S-phase 43.4; G1 26.8; G2-M 29.1 | (d) CU2: S-phase 39.7; G1 31.9; G2-M 28.2 DOUBTS OF THE COPYIST ABOUT THIS PICTURE: Panel d print is small, so these digits are best readings: DMSO G2-M 27.8 (8 or 6); CU1 G1 26.8 (6 or 8); CU2 S-phase 39.7 (9 or 8); CU2 G2-M 28.2 (8 or 6) / Panels a and c: the lane ratios printed under the western blots (a: 1.0, 0.64, 0.40; c: 1.0/0.65, 1.0/0.63, 1.0/0.53) were left out because they belong to blots and the picture prints no measure for them […]
As DNA damage induced by HU is cell-cycle-dependent, it was necessary to establish whether CU1 and CU2 might simply prevent cells from entering the S-phase, which would also manifest itself as a reduction in mUb-FANCD2. This was determined by analysis of several biomarkers linked to DNA damage in cycling cells. […]

`NCCN1C(=O)CC[C@H]2CN(Cc3cccc(-c4ccco4)c3)CC[C@H]21` [CU1]: the S-phase indices result is “no reduction in S-phase indices”. For the same compound, the EdU incorporation intensity result (CU1 200 μM) was “slightly lower”.

In the case of `CCN1CCN(c2cc(C)nc3nc(CN4CCCCC4C)nn23)CC1` (stereo not drawn) [CU2], the S-phase indices entry is “no reduction in S-phase indices”.
